Some test systems named below: HCT-116 colon; RPMI-8226 leukemia; COLO 205 colon; HCT-15 colon; U251 CNS; OVCAR-3 ovarian; HT29 colon; TK-10 renal; T-47D breast; DU-145 prostate.
Common to all, as to assay: NCI-60 cell line screen, 48 h

The source of these data is PubChem BioAssay (NCI).

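Step 1: Grow cells in 96-well plates. Step 2: Expose to compound for 48 hours at 5 concentrations. Step 3: Interpolate endpoints linearly; if unreached, use highest concentration. GI50 is the concentration that inhibits growth by half. Definition used: TGI = concentration required for complete inhibition of growth.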

For `Cn1nc(-c2ccccc2)c2c(/C=C/c3ccccc3)onc2c1=O`, the TGI in the test with HCT-116 colon, with RPMI-8226 leukemia, in the test on COLO 205 colon, with HCT-15 colon, with U251 CNS and with OVCAR-3 ovarian was > 100 µM throughout. Also, the TGI in the test with HT29 colon and with TK-10 renal was > 100 µM in each case.
As to `CC(C)(C)C(C#N)(C#N)c1ccc(C(C#N)(C#N)C(C)(C)C)nn1`, the TGI with RPMI-8226 leukemia, in the test on COLO 205 colon, in the test with HCT-15 colon, in the test with OVCAR-3 ovarian, with HT29 colon and with TK-10 renal was > 100 µM each time.
With `Cc1ccc(S(=O)(=O)N/N=C(/c2nc3ccc([N+](=O)[O-])cc3[nH]c2=O)C(O)c2ccc(C(O)/C(=N\NS(=O)(=O)c3ccc(C)cc3)c3nc4ccc([N+](=O)[O-])cc4[nH]c3=O)cc2)cc1` (configuration not stated), the TGI with HCT-116 colon, in the test with RPMI-8226 leukemia, in the test with COLO 205 colon, in the test on U251 CNS, in the test on OVCAR-3 ovarian and in the test with HT29 colon was > 100 µM in each case. The TGI with TK-10 renal was > 100 µM.
Regarding `COc1cccc(-c2cc(=O)c3ccccc3[nH]2)c1`, the TGI is > 100 µM in the test with HCT-116 colon; > 100 µM in the test on RPMI-8226 leukemia; > 38.2 µM in the test on COLO 205 colon; > 100 µM in the test with HCT-15 colon; > 100 µM in the test on U251 CNS; > 31.6 µM in the test on OVCAR-3 ovarian. Also, the TGI with HT29 colon and in the test with TK-10 renal was > 100 µM each time.
On to `CCSc1c2ccccc2c(-c2nc(F)nc(F)n2)n1CCc1ccccc1`, for which the TGI in the test on HCT-116 colon, with RPMI-8226 leukemia, in the test with COLO 205 colon, with HCT-15 colon, with U251 CNS and in the test on OVCAR-3 ovarian was > 100 µM each time. The TGI in the test on HT29 colon and in the test on TK-10 renal was > 100 µM throughout.
In the case of `C[C@]12CCC3[C@@H](CC[C@@H]4c5nonc5CC[C@]34C)C1CC[C@@H]2O` (some centres not stated), the TGI in the test on RPMI-8226 leukemia was 38.9 µM; in the test on COLO 205 colon, 71.3 µM; with HCT-15 colon, 83.5 µM; in the test on U251 CNS, 45.7 µM; with OVCAR-3 ovarian, 62.1 µM; with HT29 colon, > 100 µM. The TGI in the test with TK-10 renal is > 100 µM.
For the compound `Brc1ccc2ns[s+]c2c1`, the TGI was > 100 µM in the test with HCT-116 colon; > 100 µM in the test with RPMI-8226 leukemia; > 41.9 µM in the test on COLO 205 colon; > 100 µM in the test on HCT-15 colon; > 31.6 µM in the test on U251 CNS; > 100 µM in the test on OVCAR-3 ovarian. Besides, the TGI with HT29 colon and in the test with TK-10 renal was > 100 µM in each case.
Take `CC(=O)NC(CC(C)C)C(=O)NC(Cc1ccccc1)C(=S)N1CCCC1` (configuration not stated): the TGI in the test with RPMI-8226 leukemia, in the test with COLO 205 colon, in the test on HCT-15 colon, in the test with U251 CNS, in the test with OVCAR-3 ovarian and in the test with HT29 colon was > 100 µM throughout. Also, the TGI in the test with TK-10 renal is > 100 µM.
On to `NC(=O)NC1C(C(N)=O)N(Cc2ccccc2)C(=O)N1Cc1ccccc1` (configuration not stated), for which the TGI with HCT-116 colon, with RPMI-8226 leukemia, in the test with COLO 205 colon, in the test on HCT-15 colon, with U251 CNS and in the test with OVCAR-3 ovarian was > 100 µM in each case. The TGI in the test with HT29 colon and in the test on TK-10 renal was > 100 µM each time.
Turning to `CC(=O)OC1COC(n2c(=S)n(-c3ccccc3)c(=O)c3ccccc32)C(OC(C)=O)C1OC(C)=O` (configuration not stated), the TGI in the test with HCT-116 colon, in the test on RPMI-8226 leukemia, with COLO 205 colon, with HCT-15 colon, in the test on U251 CNS and in the test on OVCAR-3 ovarian was > 100 µM in each case. In addition, in the test on HT29 colon, the TGI is > 100 µM.
`CC1=C(C(=O)Nc2cc(F)c(F)cc2F)C(c2ccc([N+](=O)[O-])cc2)C(C(=O)Nc2cc(F)c(F)cc2F)=C(C)N1`: the TGI in the test on HCT-116 colon was > 100 µM; in the test on RPMI-8226 leukemia, 45.1 µM; in the test with COLO 205 colon, > 100 µM; in the test with U251 CNS, > 100 µM; with OVCAR-3 ovarian it was 80.8 µM; in the test on HT29 colon it was > 100 µM. The same compound yielded a TGI in the test with TK-10 renal of 95.1 µM.
On to `COc1cc2c(=O)[nH]c3cc([N+](=O)[O-])ccc3c2cc1[N+](=O)[O-]`, for which the GI50 in the test with T-47D breast is 3.52 µM; in the test on DU-145 prostate, 4.63 µM; in the test on HCT-116 colon it was 2.25 µM; in the test on COLO 205 colon, 4.11 µM; in the test on HCT-15 colon it was 7.29 µM; in the test on OVCAR-3 ovarian, 3.85 µM. Further, the values for the GI50 with HT29 colon and with TK-10 renal were 2.93 µM and 3.29 µM, respectively. Also, the TGI in the test with T-47D breast is > 100 µM; in the test on DU-145 prostate, > 100 µM; in the test on HCT-116 colon, > 100 µM; in the test with COLO 205 colon, > 100 µM; in the test on HCT-15 colon, > 100 µM; in the test on OVCAR-3 ovarian, 31.7 µM. In addition, the TGI with HT29 colon and in the test on TK-10 renal was > 100 µM throughout.
Take `CN(CCCNC(=O)CCOCCOCCOCCNC(=O)Cc1ccc2ccc3cccc4ccc1c2c34)CCCNc1cc(-c2ccc3ccccc3c2)nc2ccccc12`: the GI50 in the test on T-47D breast is 0.654 µM; with DU-145 prostate it was 0.561 µM; with HCT-116 colon it was 0.13 µM; in the test with COLO 205 colon, 0.436 µM; in the test on HCT-15 colon, 1.19 µM; in the test with U251 CNS it was 0.472 µM. Also, the GI50 with OVCAR-3 ovarian was 0.572 µM; in the test on HT29 colon, 0.108 µM; with TK-10 renal it was 3.29 µM. Besides, the TGI with T-47D breast amounted to 1.34 µM; in the test with DU-145 prostate, 1.2 µM; in the test on HCT-116 colon, 32.5 µM; in the test on COLO 205 colon, 0.902 µM; in the test on HCT-15 colon, 2.81 µM; in the test with U251 CNS, 0.938 µM. The TGI was 1.17 µM in the test on OVCAR-3 ovarian, 0.419 µM in the test with HT29 colon and 14.7 µM in the test on TK-10 renal.
Take `O=C(NNc1ccccc1)/C(=C/c1ccc2c(c1)OCO2)NC(=O)c1ccccc1`: the TGI with HCT-116 colon, in the test on RPMI-8226 leukemia, with COLO 205 colon, in the test on HCT-15 colon, with U251 CNS and in the test on OVCAR-3 ovarian was > 100 µM each time. The TGI in the test on HT29 colon and in the test on TK-10 renal was > 100 µM throughout.
As for `O=C1c2ccccc2C(=O)c2c(OCCOCCO)cccc21`, the TGI with T-47D breast, with DU-145 prostate, with HCT-116 colon, with COLO 205 colon, with HCT-15 colon and with U251 CNS was > 100 µM each time. Moreover, the TGI in the test with OVCAR-3 ovarian, in the test on HT29 colon and in the test with TK-10 renal was > 100 µM in each case.
